Results taken from US20250108038A1 (priority 2023, published 2025).
pIC50: −log10 of the molar value.

Legend:
[1] = test system: HEK293 uptake transporter overexpressing and control cells; assay: Resazurin-based cytotoxicity assay
Protocol: The cells were plated on 96-well plates. Prior to the experiment the medium was removed, and cells were rinsed with 2×100 μL of the respective buffer for uptake transporter transfected and control cell lines.

[2] = biological target: T1, OCT1 (Homo sapiens, UniProt O15245); assay: Uptake transporter inhibition assay, OCT1 (sumatriptan)
T1 sequence (O15245 1-554): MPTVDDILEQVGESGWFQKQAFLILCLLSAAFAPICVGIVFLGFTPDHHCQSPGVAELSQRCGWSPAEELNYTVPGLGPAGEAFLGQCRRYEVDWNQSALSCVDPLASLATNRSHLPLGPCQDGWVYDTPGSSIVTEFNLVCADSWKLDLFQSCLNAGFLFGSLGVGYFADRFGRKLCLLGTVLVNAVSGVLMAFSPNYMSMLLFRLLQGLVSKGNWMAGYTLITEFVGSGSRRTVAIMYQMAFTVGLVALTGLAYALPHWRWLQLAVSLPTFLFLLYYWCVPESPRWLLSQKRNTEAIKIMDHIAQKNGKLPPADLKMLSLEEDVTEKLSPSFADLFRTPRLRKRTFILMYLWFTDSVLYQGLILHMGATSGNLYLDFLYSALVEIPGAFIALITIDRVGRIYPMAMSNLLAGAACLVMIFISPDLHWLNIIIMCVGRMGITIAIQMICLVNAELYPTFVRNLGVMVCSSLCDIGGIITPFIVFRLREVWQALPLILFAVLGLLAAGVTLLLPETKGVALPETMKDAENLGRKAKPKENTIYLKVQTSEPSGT
Protocol: Uptake experiments were performed using HEK293 cells stably expressing the respective uptake transporters. The assays were conducted according to the actual SOLVO uptake transporter assay protocols (PR-ASY-UPT-General Protocol for Uptake Transporter Inhibition Assays).
Cells were cultured at 37° C. in a humidified atmosphere containing 5% CO2 and were plated onto standard 96-well tissue culture plates.
Before the experiment, the medium was removed, and the cells were washed twice with 100 μL of pre-warmed (37° C.) assay buffer listed in Table 15. The cells were pre-incubated at 37° C. for 30 minutes in assay buffer containing the test article at appropriate concentrations (Table 16), appropriate solvents for solvent controls and the reference inhibitor for reference inhibitor wells. After the pre-incubation step solutions were removed. Uptake experiments were performed at 37° C. in 50 μL of assay buffer containing the probe substrate and the test article or solvent and controls.
After the experiment, cells were washed twice with 100 μL of appropriate cold buffer and lysed with 150 μL scintillation cocktail. Radiolabeled probe substrate transport was determined by liquid scintillation counting.
Uptake of the probe substrate in control cells provided background activity values for all data points.

[3] = MATE1 assay, 5.00 μM, incubation 30 + 3 min
[4] = MATE1 assay, 10.00 μM, incubation 30 + 3 min
[5] = MATE1 assay, 20.00 μM, incubation 30 + 3 min
[6] = MATE1 assay, 30.00 μM, incubation 30 + 3 min
[7] = MATE2-K assay, 5.00 μM, incubation 30 + 1 min
[8] = MATE2-K assay, 10.00 μM, incubation 30 + 1 min
[9] = MATE2-K assay, 20.00 μM, incubation 30 + 1 min
[10] = MATE2-K assay, 30.00 μM, incubation 30 + 1 min
[11] = OAT1 assay, 5.00 μM, incubation 30 + 2 min
[12] = OAT1 assay, 10.00 μM, incubation 30 + 2 min
[13] = OAT1 assay, 20.00 μM, incubation 30 + 2 min
[14] = OAT1 assay, 30.00 μM, incubation 30 + 2 min
[15] = OAT3 assay, 5.00 μM, incubation 30 + 1 min
[16] = OAT3 assay, 10.00 μM, incubation 30 + 1 min
[17] = OAT3 assay, 20.00 μM, incubation 30 + 1 min
[18] = OAT3 assay, 30.00 μM, incubation 30 + 1 min
[19] = OATP1B1 assay, 5.00 μM, incubation 30 + 3 min
[20] = OATP1B1 assay, 10.00 μM, incubation 30 + 3 min
[21] = OATP1B1 assay, 20.00 μM, incubation 30 + 3 min
[22] = OATP1B1 assay, 30.00 μM, incubation 30 + 3 min
[23] = OATP1B3 assay, 5.00 μM, incubation 30 + 2 min
[24] = OATP1B3 assay, 10.00 μM, incubation 30 + 2 min
[25] = OATP1B3 assay, 20.00 μM, incubation 30 + 2 min
[26] = OATP1B3 assay, 30.00 μM, incubation 30 + 2 min
[27] = OCT1 assay, 5.00 μM, incubation 30 + 3 min
[28] = OCT1 assay, 10.00 μM, incubation 30 + 3 min
[29] = OCT1 assay, 20.00 μM, incubation 30 + 3 min
[30] = OCT1 assay, 30.00 μM, incubation 30 + 3 min
[31] = OCT2 assay, 5.00 μM, incubation 30 + 1 min
[32] = OCT2 assay, 10.00 μM, incubation 30 + 1 min
[33] = OCT2 assay, 20.00 μM, incubation 30 + 1 min
[34] = OCT2 assay, 30.00 μM, incubation 30 + 1 min
[35] = 0.04 μM nominal, sumatriptan, IC50 determination, Table 122
[36] = 0.12 μM nominal, sumatriptan, IC50 determination, Table 122
[37] = 1.11 μM nominal, sumatriptan, IC50 determination, Table 122
[38] = 3.00 μM nominal, sumatriptan, Table 121
[39] = 10.00 μM nominal, sumatriptan, IC50 determination, Table 122
[40] = 30.00 μM nominal, sumatriptan, IC50 determination, Table 122
[41] = 30.00 μM nominal, sumatriptan, Table 121

OC1(c2ccc(Cl)cc2)c2ccccc2C2=NCCN21 (centres unmarked) [Compound A, 5-(4-chlorophenyl)-2,3-dihydroimidazo[1,2-b]isoindol-5-ol, reference compound]
Cell viability (cytotoxic effect) ([1]; HEK293-MATE1-LV, -MATE2-K-LV, -OAT1-LV, -OAT3-LV, -OATP1B1-LV, -OATP1B3-LV, -OCT1-LV, -OCT2-LV and control cells): did not reduce the cell viability
Relative cell viability, control cells [1, 3]: 99.21 ± 1.16 % of control
Relative cell viability, transfected cells [1, 3]: 100.44 ± 1.23 % of control
Relative cell viability, control cells [1, 4]: 99.15 ± 1.14 % of control
Relative cell viability, transfected cells [1, 4]: 100.94 ± 1.13 % of control
Relative cell viability, control cells [1, 5]: 99.30 ± 1.01 % of control
Relative cell viability, transfected cells [1, 5]: 101.82 ± 1.13 % of control
Relative cell viability, control cells [1, 6]: 99.32 ± 1.20 % of control
Relative cell viability, transfected cells [1, 6]: 100.38 ± 1.18 % of control
Relative cell viability, control cells [1, 7]: 98.30 ± 0.72 % of control
Relative cell viability, transfected cells [1, 7]: 100.17 ± 1.24 % of control
Relative cell viability, control cells [1, 8]: 101.55 ± 0.74 % of control
Relative cell viability, transfected cells [1, 8]: 99.35 ± 0.57 % of control
Relative cell viability, control cells [1, 9]: 99.74 ± 0.77 % of control
Relative cell viability, transfected cells [1, 9]: 98.93 ± 1.00 % of control
Relative cell viability, control cells [1, 10]: 99.57 ± 0.77 % of control
Relative cell viability, transfected cells [1, 10]: 95.00 ± 1.36 % of control
Relative cell viability, control cells [1, 11]: 99.60 ± 2.60 % of control
Relative cell viability, transfected cells [1, 11]: 101.06 ± 0.56 % of control
Relative cell viability, control cells [1, 12]: 102.26 ± 1.66 % of control
Relative cell viability, transfected cells [1, 12]: 100.28 ± 0.26 % of control
Relative cell viability, control cells [1, 13]: 103.10 ± 2.01 % of control
Relative cell viability, transfected cells [1, 13]: 98.34 ± 0.33 % of control
Relative cell viability, control cells [1, 14]: 102.66 ± 2.43 % of control
Relative cell viability, transfected cells [1, 14]: 93.28 ± 2.26 % of control
Relative cell viability, control cells [1, 15]: 98.41 ± 1.36 % of control
Relative cell viability, transfected cells [1, 15]: 97.17 ± 0.40 % of control
Relative cell viability, control cells [1, 16]: 96.14 ± 2.42 % of control
Relative cell viability, transfected cells [1, 16]: 98.73 ± 0.68 % of control
Relative cell viability, control cells [1, 17]: 95.85 ± 2.05 % of control
Relative cell viability, transfected cells [1, 17]: 97.97 ± 0.89 % of control
Relative cell viability, control cells [1, 18]: 98.11 ± 1.29 % of control
Relative cell viability, transfected cells [1, 18]: 99.16 ± 0.66 % of control
Relative cell viability, control cells [1, 19]: 95.83 ± 0.85 % of control
Relative cell viability, transfected cells [1, 19]: 101.07 ± 0.61 % of control
Relative cell viability, control cells [1, 20]: 93.21 ± 2.18 % of control
Relative cell viability, transfected cells [1, 20]: 102.28 ± 0.69 % of control
Relative cell viability, control cells [1, 21]: 96.00 ± 0.81 % of control
Relative cell viability, transfected cells [1, 21]: 99.79 ± 0.88 % of control
Relative cell viability, control cells [1, 22]: 96.60 ± 2.23 % of control
Relative cell viability, transfected cells [1, 22]: 98.92 ± 1.07 % of control
Relative cell viability, control cells [1, 23]: 96.08 ± 0.72 % of control
Relative cell viability, transfected cells [1, 23]: 99.30 ± 0.80 % of control
Relative cell viability, control cells [1, 24]: 93.50 ± 0.99 % of control
Relative cell viability, transfected cells [1, 24]: 99.16 ± 1.10 % of control
Relative cell viability, control cells [1, 25]: 98.24 ± 0.33 % of control
Relative cell viability, transfected cells [1, 25]: 99.23 ± 0.43 % of control
Relative cell viability, control cells [1, 26]: 100.55 ± 0.31 % of control
Relative cell viability, transfected cells [1, 26]: 99.58 ± 0.58 % of control
Relative cell viability, control cells [1, 27]: 95.85 ± 5.15 % of control
Relative cell viability, transfected cells [1, 27]: 105.13 ± 8.07 % of control
Relative cell viability, control cells [1, 28]: 99.88 ± 5.10 % of control
Relative cell viability, transfected cells [1, 28]: 106.01 ± 8.03 % of control
Relative cell viability, control cells [1, 29]: 98.58 ± 5.65 % of control
Relative cell viability, transfected cells [1, 29]: 105.82 ± 8.04 % of control
Relative cell viability, control cells [1, 30]: 102.27 ± 5.38 % of control
Relative cell viability, transfected cells [1, 30]: 109.22 ± 8.33 % of control
Relative cell viability, control cells [1, 31]: 95.32 ± 3.75 % of control
Relative cell viability, transfected cells [1, 31]: 96.41 ± 1.41 % of control
Relative cell viability, control cells [1, 32]: 93.96 ± 4.78 % of control
Relative cell viability, transfected cells [1, 32]: 97.59 ± 1.08 % of control
Relative cell viability, control cells [1, 33]: 96.81 ± 3.07 % of control
Relative cell viability, transfected cells [1, 33]: 98.80 ± 0.86 % of control
Relative cell viability, control cells [1, 34]: 96.68 ± 2.77 % of control
Relative cell viability, transfected cells [1, 34]: 98.11 ± 0.97 % of control
decrease of the relative cell viability compared to solvent (DMSO) ([1]; all uptake transporter overexpressing and control cells): less than 20%
pIC50 [2]: 5.64
Relative transporter specific accumulation [2, 35]: 91.36 ± 5.98 % of control
Transporter specific accumulation [2, 35]: 881.00 ± 27.83 cpm
Relative transporter specific accumulation [2, 36]: 73.95 ± 5.69 % of control
Transporter specific accumulation [2, 36]: 713.17 ± 36.62 cpm
Relative transporter specific accumulation [2, 37]: 65.12 ± 6.84 % of control
Transporter specific accumulation [2, 37]: 628.00 ± 55.27 cpm
Relative transporter specific accumulation [2, 38]: 51.27 ± 1.85 % of control
Transporter specific accumulation [2, 38]: 484.33 ± 16.61 cpm
Relative transporter specific accumulation [2, 39]: 25.23 ± 3.64 % of control
Transporter specific accumulation [2, 39]: 243.33 ± 32.16 cpm
Relative transporter specific accumulation [2, 40]: 14.03 ± 4.75 % of control
Transporter specific accumulation [2, 40]: 135.33 ± 45.14 cpm
Relative transporter specific accumulation [2, 41]: 15.00 ± 1.09 % of control
Transporter specific accumulation [2, 41]: 141.67 ± 10.22 cpm
inhibition at 10 µM ([2]; human, Maximum % inhibition, OCT1, HEK293 cells, sumatriptan (10 μM), NIO: no inhibition observed): 86%
inhibition at 0.04 μM ([2]; human, Relative Inhibition, 0.04 μM nominal, sumatriptan, IC50 determination, Table 122): 9%
inhibition at 0.12 μM ([2]; human, Relative Inhibition, 0.12 μM nominal, sumatriptan, IC50 determination, Table 122): 26%
inhibition at 1.11 μM ([2]; human, Relative Inhibition, 1.11 μM nominal, sumatriptan, IC50 determination, Table 122): 35%
inhibition at 10 µM ([2]; human, Relative Inhibition, 10.00 μM nominal, sumatriptan, IC50 determination, Table 122): 75%
inhibition at 30 μM ([2]; human, Relative Inhibition, 30.00 μM nominal, sumatriptan, IC50 determination, Table 122): 86%
inhibition at 3 μM ([2]; human, Relative inhibition, 3.00 μM nominal, sumatriptan, Table 121): 49%
inhibition at 30 μM ([2]; human, Relative inhibition, 30.00 μM nominal, sumatriptan, Table 121): 85%
